Experimental data taken from patent US20220031709A1, “INHIBITION OF MICROSOMAL PROSTAGLANDIN E2 (PGE2) SYNTHASE-1 (MPGES-1)” (University of Kentucky Research Foundation, priority 2020, published 2022).

Columns and labels:
JAK = settings: in vitro effect of PGE2; cited from earlier work
[1] = single IV dose in clinical trial: ceftriaxone 2 g, aztreonam 500 mg, cefotetan 1 g; read-out: Cmax in human plasma; cited from earlier work
human mPGES-1 = target: T1, human mPGES-1 (Homo sapiens, UniProt O14684); assay: in vitro activity assay (ELISA) against human mPGES-1; assay type: biochemical
T1 sequence (O14684 1-152): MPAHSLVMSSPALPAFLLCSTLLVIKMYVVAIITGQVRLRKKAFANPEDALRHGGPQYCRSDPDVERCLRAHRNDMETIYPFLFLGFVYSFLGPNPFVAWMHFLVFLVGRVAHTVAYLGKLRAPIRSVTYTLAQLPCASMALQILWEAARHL
Method: The inhibitory activity of these drugs against human mPGES-1 was determined in vitro using the previously described in vitro activity procedure, an enzyme-linked immunosorbent assay (ELISA). (Ding et al., 2018a; Ding et al., 2018b; Zhou et al., 2017).

[2] = system: CFA-induced knee joint arthritis; assay: CFA (adjuvant)-induced knee joint arthritis, arthritis score; assay type: in vivo, wild-type rats; settings: IP daily on Days 3 to 6 after CFA on Day 0
Method: FIG. 6 illustrates the anti-inflammatory and analgesic effects (in terms of arthritis score) of ceftriaxone and cefotetan on CFA-induced knee joint arthritis in wild-type rats (n=10 for each group). CFA was injected to the knee joint on Day 0. Drug or vehicle (control) was injected (IP) daily on Days 3 to 6. Arthritis score (mean spontaneous pain rating) measured on Days 0 to 6, 8, 10, and 12.
Ceftriaxone and cefotetan were further tested using an adjuvant-induced knee joint arthritis model described by Hammell et al. 2016. Using this one-week knee joint arthritis model, CFA was injected to the knee joint on Day 0 to induce chronic arthritis and associated pain, followed by daily PWL and arthritis score (mean spontaneous pain rating) assessments from Day 0 to Day 7.
Daily treatment with ceftriaxone and cefotetan or vehicle (control group) started on Day 3 (after the arthritis score assessment on that day) and continued until Day 6. There were a total of four doses of the respective treatment from Day 3 to Day 6. […] On Day 3, the arthritis score reached the peak (reflecting the most severe arthritis), which is consistent with previous observations reported for the control group. (Hammell et al., 2016).

[3] = system: carrageenan-induced hyperalgesia; assay: carrageenan-induced hyperalgesia, pre-treatment (paw withdrawal latency); assay type: in vivo, wild-type rats; settings: for effect on carrageenan-induced hyperalgesia (PWL): IP 1 h before 1% carrageenan, ceftriaxone 200 mg/kg, cefotetan 100 mg/kg, oxycodone 5 mg/kg
[4] = system: carrageenan-induced hyperalgesia; assay: post-treatment model of carrageenan-induced hyperalgesia; assay type: in vivo, wild-type rats; settings: for pain relief (PWL), post-treatment: treated IP 23 h after carrageenan, ceftriaxone 100 or 200 mg/kg, cefotetan 50 or 100 mg/kg, oxycodone 5 mg/kg
Method: To better model the clinical treatment of pain, ceftriaxone (FIG. 4) and cefotetan (FIG. 5) were also tested in a post-treatment model of carrageenan-induced hyperalgesia. Rats were first injected with carrageenan to induce the hyperalgesia/pain.

[5] = system: carrageenan-induced paw edema; assay: carrageenan-induced paw edema, pre-treatment (percent increase in paw volume); assay type: in vivo, wild-type rats; settings: IP 1 h before 1% carrageenan; ceftriaxone 200 mg/kg, cefotetan 100 mg/kg, oxycodone 5 mg/kg
[6] = system: proinflammatory cytokines (including TNF-α), GLT-1; settings: animal models of inflammation and pain/hyperalgesia; cited from earlier work
SARS-CoV-2 = assay type: cell-based; settings: cell culture; data not shown
[7] = system: chronic inflammatory arthritis; settings: placebo-controlled, double-blind study; cited from earlier work
AngII-induced AAA = assay: angiotensin (AngII)-induced abdominal aortic aneurysm model; assay type: in vivo, ApoE-deficient mice; settings: AngII minipump 28 days; ceftriaxone given beginning on Day 5
Method: FIG. 7 illustrates the anti-inflammatory effects of ceftriaxone in terms of maximum aortic diameter.
Ceftriaxone was also tested in treatment of angiotensin (AngII)-induced AAA model. This experiment was performed using ApoE-deficient mice. AngII (with a minipump to continuously release the AngII solution within 28 days) was used to induce AAA in this strain of mice beginning Day 0 for all animals in both control and intervention groups.
The AAA was characterized by the maximum aortic diameter […] detected by the ultrasound method. Ceftriaxone was given beginning on Day 5 for intervention.

[8] = mouse, in vivo; cited from earlier work

Structure (SMILES) | Cmax [1] | arthritis score (mean spontaneous pain rating) [2] | effect on carrageenan-induced hyperalgesia (PWL) [3] | pain relief (PWL), post-treatment [4] | effect on carrageenan-induced paw edema (percent increase in paw volume) [5] | also measured
N#C/C(=C/c1ccc(O)c(O)c1)C(=O)NCc1ccccc1 [AG490] |  |  |  |  |  | block of PGE2-induced inflammatory hyperalgesia effect (JAK): able to block this in vitro effect of PGE2
C[C@H]1[C@H](NC(=O)/C(=N\OC(C)(C)C(=O)O)c2csc(N)n2)C(=O)N1S(=O)(=O)O [aztreonam] | 129 µM |  |  |  |  | 
CO[C@@]1(NC(=O)C2SC(=C(C(N)=O)C(=O)O)S2)C(=O)N2C(C(=O)O)=C(CSc3nnnn3C)CS[C@@H]21 (stereo partly shown) [cefotetan] | 440 µM | mean spontaneous pain rating was reduced | has the desired anti-inflammatory and analgesic effects | significantly, and dose-dependently, relieved the pain | has the desired anti-inflammatory and analgesic effects | IC50 (human mPGES-1): 13.5 µM
CO/N=C(\C(=O)N[C@@H]1C(=O)N2C(C(=O)O)=C(CSc3nc(=O)c(=O)[nH]n3C)CS[C@H]12)c1csc(N)n1 [ceftriaxone] | 463 µM | mean spontaneous pain rating was reduced | completely suppressed carrageenan-induced hyperalgesia | significantly, and dose-dependently, relieved the pain | significantly decreased the percent increase in the paw volume | effect on proinflammatory cytokines and GLT-1 [6]: effectively attenuated the proinflammatory cytokines (including TNF-α) and reversed the downregulation of GLT-1; cytoprotective activity against SARS-CoV-2 infection (SARS-CoV-2): cytoprotective against SARS-CoV-2 infection; clinical efficacy in chronic inflammatory arthritis [7]: efficacious in treatment of chronic inflammatory arthritis; progression of AAA (maximum aortic diameter, ultrasound) (AngII-induced AAA): significantly stopped the progression of AAA, and it even reversed the AAA
Cc1ccc(-c2cc(C(F)(F)F)nn2-c2ccc(S(N)(=O)=O)cc2)cc1 [celecoxib] |  |  |  |  |  | toxicity in mice [8]: very toxic for stomach and other issues of mice, and bleeding ulcer was observed at gastric mucosa
COc1ccc2c3c1O[C@H]1C(=O)CC[C@@]4(O)[C@@H](C2)N(C)CC[C@]314 [oxycodone] |  |  | effectively relieved the pain within six hours after oxycodone injection | significantly relieved the pain |  | pain (PWL) at 23 h ([3]; oxycodone 5 mg/kg IP pre-treatment, 23 h (next day)): still significant pain at 23 h; PWL peak time ([4]; oxycodone 5 mg/kg IP, post-treatment): 1 h
